Measurements published in patent US20090239841A1, “Diaryl Ureas as CB1 Antagonists” (priority 2004, published 2009).

Target: T1, hCB1 (Homo sapiens, UniProt P21554)
T1 construct: made in house; host or cells: Sf9 insect cells (baculovirus), P2 membranes
Assay: Agonist-induced GTP binding (GTPγ35S) assay at CB1, Example 8
Format: biochemical
Settings: IC50 at CB1, determined as described in Example 8; read-out: IC50
Outline: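 Membranes from Sf9 cells co-expressing hCB1 and heterotrimeric G-protein (10 μg protein) in Tris pH 7.4 buffer with 5 μM GDP. Test compounds (10^−10–10^−5 M) competed against 1 nM CP55,940 with […] GTPγ35S, 60 min at room temperature. Filter-bound radioactivity by scintillation, expressed as percent above basal.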

T1 sequence (P21554 whole entry): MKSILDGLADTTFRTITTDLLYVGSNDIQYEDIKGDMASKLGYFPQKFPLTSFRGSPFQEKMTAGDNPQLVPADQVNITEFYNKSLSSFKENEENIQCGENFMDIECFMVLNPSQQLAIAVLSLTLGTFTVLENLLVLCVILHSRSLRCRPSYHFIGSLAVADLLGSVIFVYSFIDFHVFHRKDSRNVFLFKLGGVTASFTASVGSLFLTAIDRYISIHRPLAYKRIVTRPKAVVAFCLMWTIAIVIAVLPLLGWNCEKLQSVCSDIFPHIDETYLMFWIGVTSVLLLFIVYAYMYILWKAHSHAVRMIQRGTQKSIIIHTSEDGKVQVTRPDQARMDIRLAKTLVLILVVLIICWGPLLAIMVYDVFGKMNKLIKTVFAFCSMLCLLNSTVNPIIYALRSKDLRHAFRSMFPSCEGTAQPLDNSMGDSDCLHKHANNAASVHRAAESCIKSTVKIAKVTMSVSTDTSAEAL

| IC50 | Structure (SMILES) |
| --- | --- |
| < 2000 nM | CCCOc1ccc(NC(=O)Nc2cccc(OC)c2)cc1 [Compound 546, 1-(3-methoxyphenyl)-3-(4-propoxyphenyl)urea] |
| < 2000 nM | CCCOc1ccc(NC(=O)Nc2ccc(OC)cc2)cc1 [Compound 547, 1-(4-methoxyphenyl)-3-(4-propoxyphenyl)urea] |
| < 2000 nM | COc1cccc(NC(=O)Nc2cccc(OC(C)C)c2)c1 [Compound 548, 1-(3-isopropoxyphenyl)-3-(3-methoxyphenyl)urea] |
| < 2000 nM | COc1ccc(NC(=O)Nc2cccc(OC(C)C)c2)cc1 [Compound 549, 1-(3-isopropoxyphenyl)-3-(4-methoxyphenyl)urea] |
| < 2000 nM | CCOc1ccc(NC(=O)Nc2cccc(OC(C)C)c2)cc1 [Compound 550, 1-(4-ethoxyphenyl)-3-(3-isopropoxyphenyl)urea] |
| < 2000 nM | COc1cccc(NC(=O)Nc2ccc(OC(C)C)cc2)c1 [Compound 551, 1-(4-isopropoxyphenyl)-3-(3-methoxyphenyl)urea] |
| < 2000 nM | COc1ccc(NC(=O)Nc2ccc(OC(C)C)cc2)cc1 [Compound 552, 1-(4-isopropoxyphenyl)-3-(4-methoxyphenyl)urea] |
| < 2000 nM | COc1cccc(NC(=O)Nc2cccc(OC(F)F)c2)c1 [Compound 553, 1-[3-(difluoromethoxy)phenyl]-3-(3-methoxyphenyl)urea] |
| < 2000 nM | COc1ccc(NC(=O)Nc2cccc(OC(F)F)c2)cc1 [Compound 554, 1-[3-(difluoromethoxy)phenyl]-3-(4-methoxyphenyl)urea] |
| < 2000 nM | CCOc1ccc(NC(=O)Nc2cccc(OC(F)F)c2)cc1 [Compound 555, 1-[3-(difluoromethoxy)phenyl]-3-(4-ethoxyphenyl)urea] |
| < 2000 nM | COc1cccc(NC(=O)Nc2ccc([N+](=O)[O-])cc2)c1 [Compound 556, 1-(3-methoxyphenyl)-3-(4-nitrophenyl)urea] |
| < 2000 nM | COc1ccc(NC(=O)Nc2ccc([N+](=O)[O-])cc2)cc1 [Compound 557, 1-(4-methoxyphenyl)-3-(4-nitrophenyl)urea] |
| < 2000 nM | CCOc1cccc(NC(=O)Nc2ccc([N+](=O)[O-])cc2)c1 [Compound 558, 1-(3-ethoxyphenyl)-3-(4-nitrophenyl)urea] |
| < 2000 nM | CCOc1ccc(NC(=O)Nc2cccc([N+](=O)[O-])c2)cc1 [Compound 559, 1-(4-ethoxyphenyl)-3-(3-nitrophenyl)urea] |
| < 2000 nM | CCOc1ccc(NC(=O)Nc2ccc([N+](=O)[O-])cc2)cc1 [Compound 560, 1-(4-ethoxyphenyl)-3-(4-nitrophenyl)urea] |
| < 2000 nM | COCc1ccc(NC(=O)Nc2ccc([N+](=O)[O-])cc2)cc1 [Compound 561, 1-[4-(methoxymethyl)phenyl]-3-(4-nitrophenyl)urea] |
| < 2000 nM | CCCOc1ccc(NC(=O)Nc2ccc([N+](=O)[O-])cc2)cc1 [Compound 562, 1-(4-nitrophenyl)-3-(4-propoxyphenyl)urea] |
| < 2000 nM | CC(C)Oc1cccc(NC(=O)Nc2ccc([N+](=O)[O-])cc2)c1 [Compound 563, 1-(3-isopropoxyphenyl)-3-(4-nitrophenyl)urea] |
| < 2000 nM | CC(C)Oc1ccc(NC(=O)Nc2ccc([N+](=O)[O-])cc2)cc1 [Compound 564, 1-(4-isopropoxyphenyl)-3-(4-nitrophenyl)urea] |
| < 2000 nM | O=C(Nc1cccc(OC(F)F)c1)Nc1cccc([N+](=O)[O-])c1 [Compound 565, 1-[3-(difluoromethoxy)phenyl]-3-(3-nitrophenyl)urea] |
| < 2000 nM | O=C(Nc1ccc([N+](=O)[O-])cc1)Nc1cccc(OC(F)F)c1 [Compound 566, 1-[3-(difluoromethoxy)phenyl]-3-(4-nitrophenyl)urea] |
| < 2000 nM | O=C(Nc1ccc(OC(F)F)cc1)Nc1cccc([N+](=O)[O-])c1 [Compound 568, 1-[4-(difluoromethoxy)phenyl]-3-(3-nitrophenyl)urea] |
| < 2000 nM | O=C(Nc1ccc(OC(F)F)cc1)Nc1ccc([N+](=O)[O-])cc1 [Compound 569, 1-[4-(difluoromethoxy)phenyl]-3-(4-nitrophenyl)urea] |
| < 2000 nM | CCOc1cccc(NC(=O)Nc2ccc(C(C)C)cc2)c1 [Compound 570, 1-(3-ethoxyphenyl)-3-(4-isopropylphenyl)urea] |
| < 2000 nM | COCc1cccc(NC(=O)Nc2ccc(C(C)C)cc2)c1 [Compound 571, 1-(4-isopropylphenyl)-3-[3-(methoxymethyl)phenyl]urea] |
| < 2000 nM | COCc1ccc(NC(=O)Nc2ccc(C(C)C)cc2)cc1 [Compound 572, 1-(4-isopropylphenyl)-3-[4-(methoxymethyl)phenyl]urea] |
| < 2000 nM | CCCOc1ccc(NC(=O)Nc2ccc(C(C)C)cc2)cc1 [Compound 573, 1-(4-isopropylphenyl)-3-(4-propoxyphenyl)urea] |

| IC50 | Structure (SMILES) |
| --- | --- |
| < 2000 nM | CC(C)Oc1cccc(NC(=O)Nc2ccc(C(C)C)cc2)c1 [Compound 574, 1-(3-isopropoxyphenyl)-3-(4-isopropylphenyl)urea] |
| < 2000 nM | CC(C)Oc1ccc(NC(=O)Nc2ccc(C(C)C)cc2)cc1 [Compound 575, 1-(4-isopropoxyphenyl)-3-(4-isopropylphenyl)urea] |
| < 2000 nM | CC(C)c1ccccc1NC(=O)Nc1cccc(OC(F)F)c1 [Compound 576, 1-[3-(difluoromethoxy)phenyl]-3-(2-isopropylphenyl)urea] |
| < 2000 nM | CC(C)c1ccc(NC(=O)Nc2cccc(OC(F)F)c2)cc1 [Compound 577, 1-[3-(difluoromethoxy)phenyl]-3-(4-isopropylphenyl)urea] |
| < 2000 nM | CCCc1ccccc1NC(=O)Nc1cccc(OC(F)F)c1 [Compound 578, 1-[3-(difluoromethoxy)phenyl]-3-(2-propylphenyl)urea] |
| < 2000 nM | N#CCc1ccc(NC(=O)Nc2ccc(OC(F)F)cc2)cc1 [Compound 581, 1-[4-(cyanomethyl)phenyl]-3-[4-(difluoromethoxy)phenyl]urea] |
| < 2000 nM | N#CCOc1ccc(NC(=O)Nc2ccc(OC(F)F)cc2)cc1 [Compound 582, 1-[4-(cyanomethoxy)phenyl]-3-[4-(difluoromethoxy)phenyl]urea] |
| < 2000 nM | CCOC(=O)c1ccc(NC(=O)Nc2ccc(OC(F)F)cc2)cc1 [Compound 583, ethyl 4-[({[4-(difluoromethoxy)phenyl]amino}carbonyl)amino]benzoate] |
| < 2000 nM | CC(C)OC(=O)c1ccc(NC(=O)Nc2ccc(OC(F)F)cc2)cc1 [Compound 584, isopropyl 4-[({[4-(difluoromethoxy)phenyl]amino}carbonyl)amino]benzoate] |
| < 2000 nM | COc1cccc(NC(=O)Nc2ccc(CC#N)cc2)c1 [Compound 585, 1-[4-(cyanomethyl)phenyl]-3-(3-methoxyphenyl)urea] |
| < 2000 nM | COc1ccc(NC(=O)Nc2ccc(CC#N)cc2)cc1 [Compound 586, 1-[4-(cyanomethyl)phenyl]-3-(4-methoxyphenyl)urea] |
| < 2000 nM | CCOc1ccc(NC(=O)Nc2ccc(CC#N)cc2)cc1 [Compound 587, 1-[4-(cyanomethyl)phenyl]-3-(4-ethoxyphenyl)urea] |
| < 2000 nM | COc1cccc(NC(=O)Nc2ccc(OCC#N)cc2)c1 [Compound 588, 1-[4-(cyanomethoxy)phenyl]-3-(3-methoxyphenyl)urea] |
| < 2000 nM | COc1ccc(NC(=O)Nc2ccc(OCC#N)cc2)cc1 [Compound 589, 1-[4-(cyanomethoxy)phenyl]-3-(4-methoxyphenyl)urea] |
| < 2000 nM | CCOc1ccc(NC(=O)Nc2ccc(OCC#N)cc2)cc1 [Compound 590, 1-[4-(cyanomethoxy)phenyl]-3-(4-ethoxyphenyl)urea] |
| < 2000 nM | CCC(=O)c1ccc(NC(=O)Nc2cccc(OC)c2)cc1 [Compound 591, 1-(3-methoxyphenyl)-3-(4-propionylphenyl)urea] |
| < 2000 nM | CCOC(=O)c1ccc(NC(=O)Nc2cccc(OC)c2)cc1 [Compound 593, ethyl 4-({[(3-methoxyphenyl)amino]carbonyl}amino)benzoate] |
| < 2000 nM | CCOC(=O)c1ccc(NC(=O)Nc2ccc(OC)cc2)cc1 [Compound 594, ethyl 4-({[(4-methoxyphenyl)amino]carbonyl}amino)benzoate] |
| < 2000 nM | CCOC(=O)c1ccc(NC(=O)Nc2ccc(OCC)cc2)cc1 [Compound 595, ethyl 4-({[(4-ethoxyphenyl)amino]carbonyl}amino)benzoate] |
| < 2000 nM | CCOc1ccc(NC(=O)Nc2ccc(S(C)(=O)=O)cc2)cc1 [Compound 596, 1-(4-ethoxyphenyl)-3-[4-(methylsulfonyl)phenyl]urea] |
| < 2000 nM | COc1cccc(NC(=O)Nc2ccc(C(=O)OC(C)C)cc2)c1 [Compound 597, isopropyl 4-({[(3-methoxyphenyl)amino]carbonyl}amino)benzoate] |
| < 2000 nM | COc1ccc(NC(=O)Nc2ccc(C(=O)OC(C)C)cc2)cc1 [Compound 598, isopropyl 4-({[(4-methoxyphenyl)amino]carbonyl}amino)benzoate] |
| < 2000 nM | CCOc1ccc(NC(=O)Nc2ccc(C(=O)OC(C)C)cc2)cc1 [Compound 599, isopropyl 4-({[(4-ethoxyphenyl)amino]carbonyl}amino)benzoate] |
| < 2000 nM | N#CCOc1ccc(NC(=O)Nc2cccc([N+](=O)[O-])c2)cc1 [Compound 600, 1-[4-(cyanomethoxy)phenyl]-3-(3-nitrophenyl)urea] |
| < 2000 nM | CCOC(=O)c1ccc(NC(=O)Nc2ccc(C(C)C)cc2)cc1 [Compound 602, ethyl 4-({[(4-isopropylphenyl)amino]carbonyl}amino)benzoate] |
| < 2000 nM | CCN(CC)C(=O)c1ccccc1NC(=O)Nc1ccc(OC(F)F)cc1 [Compound 603] |
| < 2000 nM | CC(C)(C)c1ccccc1NC(=O)Nc1ccc(OC(F)F)cc1 [Compound 604, 1-(2-tert-butylphenyl)-3-[4-(difluoromethoxy)phenyl]urea] |
